Reference: PubChem BioAssay AID1963842 (Molecular Pharmacology Branch, DTP, NCI, 2024)

System: 677734-321-R-J1-PDC complex spheroid viability
Assay: Anticancer human tumor 677734-321-R-J1-PDC patient-derived soft tissue sarcoma cell line growth inhibition [POLQ]
Details: for IC50: curve of first compound; for viability, T/C: stronger effect = lower value
Procedure: Multicellular complex tumor spheroid response to Polymerase (POL) inhibitors (novobiocin, ART-558, RP6685) in combination with a variety of drugs and investigational agents in selected tumor cell lines
The POL inhibitors (novobiocin, ART-558, and RP6685) were evaluated both individually and in combination with standard of care and investigational anticancer small molecules within a complex spheroid model of solid tumors. . Complex spheroids include a stromal component modeled by human endothelial cells (HUVEC) and fibroblasts modeled by human mesenchymal stem cells (MSCs). The concentration ranges selected for each drug and investigational agent were based upon clinically achievable concentrations if the clinical Cmax of the agent was known.
Compounds. The drugs and investigational agents: novobiocin (NSC847541), ART-558 (NSC835418), RP-6685 (NSC848927), peposertib (NSC802822), ceralasertib (NSC780249), elimusertib (NSC800525), camonsertib (NSC841442), AZD-1390 (NSC803789), olaparib (NSC753686), talazoparib (NSC767125), rucaparib (NSC756644), sotorasib (NSC818433), MRTX-1133 (NSC836407), SN-38 (NSC673596), topotecan (NSC609699), epotoside (NSC141540), doxorubicin (NSC123127), gemcitabine (NSC613327), 5-fluorouracil (NSC19893), paclitaxel (NSC125973), vemurafenib (NSC761431), MSA-2 (NSC828583), SN-011 (NSC837082), adavosertib (NSC754352), prexasertib (NSC758257), carboplatin (NSC241240) and oxaliplatin (NSC266046), were obtained from the National Cancer Institute (NCI) Developmental Therapeutics Program Chemical Repository (21). The FDA-approved anticancer drug set is available from the Developmental Therapeutics Program at https://dtp.cancer.gov/organization/dscb/obtaining/. […] The stock solutions were prepared in dimethyl sulfoxide (DMSO, Sigma-Aldrich, St. Louis, MO, cat. D2650), except for the platinum compounds which were prepared in saline (Quality Biological, Gaithersburg, MD, cat. 114-055-101), at 800-fold the tested concentration and stored at -70 degrees C prior to their use. All drugs and investigational agents were tested over a range starting from a high concentration at or near the clinical Cmax and decreasing in half-log increments. If the clinical Cmax for an agent had not been determined, the highest concentration tested was 10 microM, except for SN-38, which was tested at a high concentration of 1 microM.
Cell Culture. All cells were maintained in an incubator at 37 degrees C and 5% CO2 with 95% humidity. The PDC lines were cultured according to standard operating procedures established by the NCI PDMR (https://pdmr.cancer.gov). Table 3 of the manuscript, lists the cell lines along with the number of the three cell types plated to form the mct-spheroids and media for tumor cell growth. After thawing, all PDC lines, except 997537-175-T-J1-PDC and 415267-285-R-J2-PDC, were cultured in Matrigel-coated flasks prepared with a working solution of 1X Ham's F-12 nutrient mix, without supplementation (Thermo Fisher Scientific, cat. 11765054), 100 U/mL penicillin-streptomycin (Thermo Fisher Scientific, cat. 15140122), and 2.5% Matrigel (Corning Inc., Corning, NY, cat. 354248) for the first three passages. The two PDC lines 997537-175-T-J1-PDC and 415267-285-R-J2-PDC were cultured on uncoated flasks. The 857933-349-R-J2-PDC line was cultured in 6C/Colon 1B media containing advanced DMEM/F-12 (Thermo Fisher Scientific, cat. 12634028), 10 mM HEPES (Thermo Fisher Scientific, cat. 15630080), 1X GlutaMAX supplement (Thermo Fisher Scientific, cat. 35050061), 0.1 mg/mL primocin (InvivoGen, San Diego, CA, cat. ant-pm-2), 10% defined fetal bovine serum, heat inactivated (HyClone Laboratories Inc., Logan, UT, cat. SH30070.03HI), 50% L-WRN conditioned media (ATCC, cat. CRL-3276), 1.25 mM N-Acetyl-L-cysteine (Sigma-Aldrich, cat. A9165), 10 mM nicotinamide (Sigma-Aldrich, cat. N0636), 1X B-27 supplement (Thermo Fisher Scientific, cat. 17504044), 1X N-2 supplement (Thermo Fisher Scientific, cat. […]

[1] = second compound 0.0316 µM, first compound 0.0316 µM
[2] = second compound 0.0316 µM, first compound 0.1 µM
[3] = second compound 0.0316 µM, first compound 0.316 µM
[4] = second compound 0.0316 µM, first compound 1 µM
[5] = second compound 0.0316 µM, first compound 3.16 µM
[6] = second compound 0.0316 µM, first compound 10 µM
[7] = second compound 0.1 µM, first compound 0.0316 µM
[8] = second compound 0.1 µM, first compound 0.1 µM
[9] = second compound 0.1 µM, first compound 0.316 µM
[10] = second compound 0.1 µM, first compound 1 µM
[11] = second compound 0.1 µM, first compound 3.16 µM
[12] = second compound 0.1 µM, first compound 10 µM
[13] = second compound 0.316 µM, first compound 0.0316 µM
[14] = second compound 0.316 µM, first compound 0.1 µM
[15] = second compound 0.316 µM, first compound 0.316 µM
[16] = second compound 0.316 µM, first compound 1 µM
[17] = second compound 0.316 µM, first compound 3.16 µM
[18] = second compound 0.316 µM, first compound 10 µM
[19] = second compound 1 µM, first compound 0.0316 µM
[20] = second compound 1 µM, first compound 0.1 µM
[21] = second compound 1 µM, first compound 0.316 µM
[22] = second compound 1 µM, first compound 1 µM
[23] = second compound 1 µM, first compound 3.16 µM
[24] = second compound 1 µM, first compound 10 µM
[25] = second compound 3.16 µM, first compound 0.0316 µM
[26] = second compound 3.16 µM, first compound 0.1 µM
[27] = second compound 3.16 µM, first compound 0.316 µM
[28] = second compound 3.16 µM, first compound 1 µM
[29] = second compound 3.16 µM, first compound 3.16 µM
[30] = second compound 3.16 µM, first compound 10 µM
[31] = second compound 10 µM, first compound 0.0316 µM
[32] = second compound 10 µM, first compound 0.1 µM
[33] = second compound 10 µM, first compound 0.316 µM
[34] = second compound 10 µM, first compound 1 µM
[35] = second compound 10 µM, first compound 3.16 µM
[36] = second compound 10 µM, first compound 10 µM
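Further: spheroids exposed to compounds for one week.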
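Wherever viability, T/C is given: 100% = vehicle DMSO treated spheroids.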

COc1cc(C2c3cc4c(cc3C(OC3OC5COC(C)OC5C(O)C3O)C3COC(=O)C23)OCO4)cc(OC)c1O (centres undefined) + COC1C(OC(N)=O)C(O)C(Oc2ccc3c(O)c(NC(=O)c4ccc(O)c(CC=C(C)C)c4)c(=O)oc3c2C)OC1(C)C
IC50 (second compound 0.0316 µM): 0.711 µM | IC50 (second compound 0.1 µM): 0.732 µM | IC50 (second compound 0.316 µM): 0.938 µM | IC50 (second compound 1 µM): 0.667 µM | IC50 (second compound 3.16 µM): 0.843 µM | IC50 (second compound 10 µM): 0.704 µM | viability, T/C [1]: 107% | viability, T/C [2]: 91.5% | viability, T/C [3]: 59.5% | viability, T/C [4]: 47.8% | viability, T/C [5]: 23.8% | viability, T/C [6]: 11.1% | viability, T/C [7]: 105% | viability, T/C [8]: 94.7% | viability, T/C [9]: 55% | viability, T/C [10]: 47.2% | viability, T/C [11]: 30.2% | viability, T/C [12]: 10.7% | viability, T/C [13]: 100% | viability, T/C [14]: 93.8% | viability, T/C [15]: 70.8% | viability, T/C [16]: 51.3% | viability, T/C [17]: 23.9% | viability, T/C [18]: 12% | viability, T/C [19]: 111% | viability, T/C [20]: 87.2% | viability, T/C [21]: 60.4% | viability, T/C [22]: 45.3% | viability, T/C [23]: 24.3% | viability, T/C [24]: 9.55% | viability, T/C [25]: 111% | viability, T/C [26]: 93.6% | viability, T/C [27]: 62.6% | viability, T/C [28]: 54.9% | viability, T/C [29]: 20.4% | viability, T/C [30]: 9% | viability, T/C [31]: 110% | viability, T/C [32]: 98.2% | viability, T/C [33]: 58.2% | viability, T/C [34]: 47.6% | viability, T/C [35]: 23.7% | viability, T/C [36]: 11%

COc1cccc2c1C(=O)c1c(O)c3c(c(O)c1C2=O)CC(O)(C(=O)CO)CC3OC1CC(N)C(O)C(C)O1 (centres undefined) + COC1C(OC(N)=O)C(O)C(Oc2ccc3c(O)c(NC(=O)c4ccc(O)c(CC=C(C)C)c4)c(=O)oc3c2C)OC1(C)C
IC50 (second compound 0.0316 µM): 0.104 µM | IC50 (second compound 0.1 µM): 0.138 µM | IC50 (second compound 0.316 µM): 0.133 µM | IC50 (second compound 1 µM): 0.148 µM | IC50 (second compound 3.16 µM): 0.13 µM | IC50 (second compound 10 µM): 0.139 µM | viability, T/C [1]: 84.4% | viability, T/C [2]: 51.5% | viability, T/C [3]: 7.79% | viability, T/C [4]: 3.03% | viability, T/C [5]: 2.77% | viability, T/C [6]: 2.45% | viability, T/C [7]: 77.6% | viability, T/C [8]: 66.7% | viability, T/C [9]: 7.11% | viability, T/C [10]: 0.57% | viability, T/C [11]: 1.78% | viability, T/C [12]: 3.77% | viability, T/C [13]: 60.4% | viability, T/C [14]: 67% | viability, T/C [15]: 7.66% | viability, T/C [16]: 0.61% | viability, T/C [17]: 2.67% | viability, T/C [18]: 3.36% | viability, T/C [19]: 83.5% | viability, T/C [20]: 70.1% | viability, T/C [21]: 11.2% | viability, T/C [22]: 0.59% | viability, T/C [23]: 1.98% | viability, T/C [24]: 2.55% | viability, T/C [25]: 74.5% | viability, T/C [26]: 62.4% | viability, T/C [27]: 8.7% | viability, T/C [28]: 0.64% | viability, T/C [29]: 2.76% | viability, T/C [30]: 2.4% | viability, T/C [31]: 68.8% | viability, T/C [32]: 67.1% | viability, T/C [33]: 7.17% | viability, T/C [34]: 0.88% | viability, T/C [35]: 3.28% | viability, T/C [36]: 1.86%
